According to US20130096067A1, “DROSOPHILA TUMOR STEM CELL MODEL AND USES THEREOF” (priority 2011, published 2013):
Several values for one entry are separate records, joined by “and”; a condition that tells them apart may be missing. Equal entries are not always repeated. Square brackets hold non-standard residues; d marks the D form. Peptide text beside a SMILES is read from it. Nle = CCCC[C@H](N)C(=O)O

System: Raf-1^gof intestinal tumors
Conditions: assessed three days later; for Log2 (fold) of luciferase activity relative to DMSO controls / Fold (luciferase activity relative to DMSO controls): ICCB compounds fed in vials to flies with one-day old Raf-1^gof tumors; for Fold (luciferase activity relative to DMSO controls) / Fold (luciferase activity, fold difference relative to DMSO controls): averaged from multiple wells; for Log2 (fold) (luciferase activity, log2 of the fold difference relative to DMSO controls) / Fold (luciferase activity, fold difference relative to DMSO controls): screen of 480 ICCB compounds in vials, compounds fed to flies with one-day old Raf-1^gof tumors, esg-Gal4 luciferase
Also: test concentration or dose not given here.

Molecule	Log2 (fold) of luciferase activity relative to DMSO controls	Fold (luciferase activity relative to DMSO controls)	Log2 (fold) (luciferase activity, log2 of the fold difference relative to DMSO controls)	Fold (luciferase activity, fold difference relative to DMSO controls)
CCCCC/C=C\C[C@@H](O)/C=C/C=C/C=C\[C@@H](O)CCCC(=O)O [LEUKOTRIENE B4]	−0.037	0.975 fold		
O=C1CN(/N=C/c2ccc(-c3ccc([N+](=O)[O-])cc3)o2)C(O)=N1 [DANTROLENE]	−0.098	0.934 fold		
COc1ccc(CCCOC(Cn2ccnc2)c2ccc(OC)cc2)cc1 (stereo not drawn) [SKF-96365]	0.134	1.097 fold		
N#CC(C#N)=NNc1ccc(OC(F)(F)F)cc1 [FCCP]			−0.313	0.805
Oc1cc2c(cc1O)CN(C(=S)NCCc1ccc(Cl)cc1)CCC2 [capsazepine]	−0.030	0.979 fold		
CC(C)NCC(O)c1ccc(N)c(C#N)c1 (stereo not drawn) [CIMATEROL]			−0.598	0.661
COc1ccc2c(c1)CC[C@@H]1[C@@H]2CC[C@]2(C)[C@@H](NCCCCCCN3C(=O)C=CC3=O)CC[C@@H]12 [U73122]			−0.865	0.549
COc1ccc([C@H]2Sc3ccccc3N(CCN(C)C)C(=O)[C@H]2OC(C)=O)cc1 [L-cis-DILTIAZEM]	0.137	1.100 fold		
N#CC(=Cc1ccc2[nH]ccc2c1)C(N)=C(C#N)C#N [AG-370]			−0.559	0.679
CCCCC/C=C\C/C=C\CCCCCCCCCC(=O)O [EICOSADIENOIC ACID (20:2 n-6)]	−0.093	0.938 fold		
C#CCN(C)C(C)Cc1ccccc1 (stereo not drawn) [Deprenyl]			−0.642	0.641
CC1=NS(=O)(=O)c2cc(Cl)ccc2N1 [DIAZOXIDE]			−0.257	0.837
CCCCCCCCCCCCC(O)C(=O)O (stereo not drawn) [2-HYDROXYMYRISTIC ACID]	0.087	1.062 fold		
CC(=O)N[C@@H](CSC/C=C(\C)CCC=C(C)C)C(=O)O [AGC]			−0.508	0.703
CCCCCCCCCCCCCCCCOCC(CO)OC (stereo not drawn) [1-HEXADECYL-2-O-METHYL-GLYCEROL]			−0.219	0.859
CC1=NN(c2ccccc2)C(=O)C1 [MCI-186]	−0.200	0.871 fold		
Cyclo [Cyclo [Arg-Gly-Asp-D-Phe-Val]]			−0.221	0.858
CCCCC[C@H](O)CC[C@H]1[C@H](O)CC(=O)[C@@H]1CCCCCCC(=O)O [13,14-DIHYDRO-PGE1]	0.587	1.502 fold		
Cc1ccc2c(c1)C(=O)C1(O)CCN(c3ccccc3)C1=N2 (stereo not drawn) [Blebbistatin]	0.196	1.146 fold		
CC/C=C\C/C=C\C/C=C\CCCCCCCC(=O)O [LINOLENIC ACID (18:3 n-3)]	0.096	1.069 fold		
CCCCCCCCCCCCCCCCOC[C@@H](O)COP(=O)([O-])OCC[N+](C)(C)C [LYSO-PAF C16]	−0.087	0.941 fold		

Molecule	Log2 (fold) of luciferase activity relative to DMSO controls	Fold (luciferase activity relative to DMSO controls)	Log2 (fold) (luciferase activity, log2 of the fold difference relative to DMSO controls)	Fold (luciferase activity, fold difference relative to DMSO controls)
CCCCC[C@H](O)/C=C/[C@@H]1[C@@H](C/C=C\CCCC(=O)O)[C@@H](O)C[C@@H]1O [9a,11b-PROSTAGLANDIN F2]			−0.294	0.815
CC/C=C\C/C=C\C/C=C\C/C=C\C/C=C\CCCCCC(=O)O [DOCOSAPENTAENOIC ACID]	−0.161	0.895 fold		
CCCC[C@@H](C=O)NC(=O)[C@H](CC(C)C)NC(=O)[C@H](CC(C)C)NC(C)=O [Ac-Leu-Leu-Nle-CHO] (Ac-Leu-Leu-[Nle]-aldehyde)			−0.431	0.742
CCCCC[C@H](O)/C=C/[C@H]1C=CC(=O)[C@@H]1C/C=C\CCCC(=O)O [PROSTAGLANDIN A2]			−0.295	0.815
CCCCNc1cc(C(=O)O)cc(S(N)(=O)=O)c1Oc1ccccc1 [bumetanide]	−0.048	0.967 fold		
O=C(O)c1cccnc1Nc1cccc(C(F)(F)F)c1 [NIFLUMIC ACID]	−0.201	0.870 fold		
COC(C)(C)CCCC(C)C/C=C/C(C)=C/C(=O)O (stereo not drawn) [METHOPRENE ACID]			−0.328	0.796
CC(C)(O)[C@H]1O[C@H]2CC[C@@]3(C)[C@@](O)(CC[C@H]4Cc5c([nH]c6ccccc56)[C@@]43C)C2=CC1=O [PAXILLINE]	−0.078	0.948 fold		
NCCc1c[nH]cn1 [HISTAMINE]	−0.158	0.896 fold		
CCCCC/C=C\C\C=C/C=C/C=C/[C@@H](SC[C@H](N)C(=O)NCC(=O)O)[C@@H](O)CCCC(=O)O [LEUKOTRIENE D4]	0.234	1.176 fold		
COc1ccc2cc1Oc1ccc(cc1)C[C@H]1c3cc(c(OC)cc3CCN1C)Oc1c(OC)c(OC)cc3c1[C@H](C2)N(C)CC3 [TETRANDRINE]			−0.318	0.802
Cc1ccc(NC(=O)c2cccc(N(C)C)c2)cc1NC(=O)c1ccc(O)cc1 [ZM336372]			−0.338	0.791
CCCCCCCC/C=C\CCCCCCCC(=O)OCC(CO)OC(C)=O (stereo not drawn) [1-OLEOYL-2-ACETYL-GLYCEROL]			−0.727 and −0.716	0.604 and 0.609
CCCCCCCC/C=C\C/C=C\C/C=C\CCCC(=O)NCCO [MEAD ETHANOLAMIDE]			−0.322	0.800
CC/C=C\C/C=C\C/C=C\C/C=C\C/C=C\C/C=C\CCC(=O)O [DOCOSAHEXAENOIC ACID (22:6 n-3)]			−0.248	0.842
Cc1cnc(C(=O)NCCc2ccc(S(=O)(=O)NC(=O)NC3CCCCC3)cc2)cn1 [GLIPIZIDE]			−0.417	0.749
N#C/C(=C\c1ccc(O)c(O)c1)C(N)=S [AG213 (Tyrphostin 47)]			−0.625	0.648
CC[N+](C)(CC)CCC[n+]1c(-c2ccccc2)c2cc(N)ccc2c2ccc(N)cc21.[I-].[I-] [propidium iodide]	0.100	1.072 fold		
CCOC(=O)CN1C(=O)CC(C[C@@H](O)[C@@H]2C[C@@H](C)C[C@H](C)C2=O)CC1=O [cycloheximide-N-ethylethanoate]	−0.014	0.990 fold		
CN1CCN(C2=Nc3cc(Cl)ccc3Nc3ccccc32)CC1 [clozapine]	−0.126	0.916 fold		
CCCNC(=O)[C@H]1O[C@@H]1C(=O)N[C@H](C(=O)N1CCC[C@H]1C(=O)OC)[C@@H](C)CC [CA-074-Me]	−0.114	0.924 fold		
